Test results taken from patent US20070259784A1, “Fungicidal Mixtures” (BASF Aktiengesellschaft, priority 2004, published 2007).

System: Puccinia recondita
Experiment: Protective activity against Puccinia recondita on wheat (brown rust of wheat)
Format: in vivo
Conditions: individual active compound, wheat leaves, visual rating
Experimental: The active compounds, separately or jointly, were prepared as a stock solution comprising 0.25% by weight of active compound in acetone or DMSO. 1% by weight of the emulsifier Uniperol® EL (welting agent having emulsifying and dispersant action based on ethoxylated alkylphenols) was added to this solution, and the mixture was diluted with water to the desired concentration.
Leaves of potted wheat seedlings of the cultivar “Kanzler” were sprayed to runoff point with an aqueous suspension having the concentration of active compound stated below. The next day, the treated plants were inoculated with a spore suspension of brown rust of wheat (Puccinia recondita). The plants were then placed in a chamber with high atmospheric humidity (90 to 95%) at 20 to 22° C. for 24 hours. During this time, the spores germinated and the germinal tubes penetrated into the leaf tissue. The next day, the test plants were returned to the greenhouse and cultivated at temperatures between 20 and 22° C. and at 65 to 70% relative atmospheric humidity for a further 7 days. The extent of the development of the rust fungus on the leaves was then determined visually.
The visually determined percentages of infected leaf areas were converted into efficacies in % of the untreated control:
The efficacy (E) is calculated as follows using Abbot's formula: E=(1−α/β)·100 α corresponds to the fungicidal infection of the treated plants in % and β corresponds to the fungicidal infection of the untreated (control) plants in %
An efficacy of 0 means that the infection level of the treated plants corresponds to that of the untreated control plants; an efficacy of 100 means that the treated plants were not infected.
The expected efficacies of mixtures of active compounds were determined using Colby's formula (Colby, S. R. “Calculating synergistic and antagonistic responses of herbicide combinations”, Weeds, 15, 20-22, 1967) and compared with the observed efficacies.
Colby's Formula: E=x+y−x·y/100 • E expected efficacy, expressed in % of the untreated control, when using the mixture of the active compounds A and B at the concentrations a and b • x efficacy, expressed in % of the untreated control, when using the active compound A at the concentration a
y efficacy, expressed in % of the untreated control, when using the active compound B at the concentration b

## CC1CCN(c2c(-c3c(F)cc(F)cc3F)c(Cl)nc3ncnn23)CC1 [compound I, 5-chloro-7-(4-methylpiperidin-1-yl)-6-(2,4,6-trifluorophenyl)-[1,2,4]triazolo[1,5-a]pyrimidine]
2.5 ppm in the spray liquor
  Efficacy in % of the untreated control: 42%
5 ppm in the spray liquor
  Efficacy in % of the untreated control: 53%

## CCN(CC)C1COC2(CCC(C(C)(C)C)CC2)O1 (centres unmarked) [compound II, (8-tert-butyl-1,4-dioxaspiro[4.5]dec-2-yl)diethylamine]
1 ppm in the spray liquor
  Efficacy in % of the untreated control: 0%
2.5 ppm in the spray liquor
  Efficacy in % of the untreated control: 0%
12.5 ppm in the spray liquor
  Efficacy in % of the untreated control: 0%
